Results on one molecule are retold here after patent US8871933B2, “Purified pyrroloquinolinyl-pyrrolidine-2,5-dione compositions and methods for preparing and using same” (ArQule, Inc., priority 2009, dated 2014).

Series [1] deals with MDA-MB-231 breast cancer cells. Description: Cancer cell invasion assay (inserts). The note with it: Homo sapiens, 24 hours pretreatment, 24 hours invasion, estimated, read-out: IC50, inhibition of invasive phenotype. The format is cell-based. Here is the method: MDA-MB-231 cells were pretreated with indicated concentrations of (−)-trans-3-(5,6-dihydro-4H-pyrrolo[3,2,1-ij]quinolin-1-yl)-4-(1H-indol-3-yl)pyrrolidine-2,5-dione for 24 hours. 300 μl of each cell suspension (at a concentration 0.5×10^6 cells/mL in serum free medium) was placed in individual inserts and incubated for 24 hours at 37° C. The bottom wells housing the inserts contained […] of 10% FBS containing medium. […] Each insert was then transferred to a clean well containing cell stain solution and incubated for 10 minutes at room temperature. The bottom of the insert was destained by incubating in extraction solution and OD was measured at 560 nm. (−)-trans-3-(5,6-dihydro-4H-pyrrolo[3,2,1-ij]quinolin-1-yl)-4-(1H-indol-3-yl)pyrrolidine-2,5-dione inhibited the migration across interstices in confluent cultures of MDA-MB-231 cancer cells. The data represent the mean of two independent experiments. (See FIG. 7)

Series [2] deals with MDA-MB-231 human breast cancer cells. Description: Human breast cancer xenograft. The format is in vivo, female athymic nude mice. Here is the method: MDA-MB-231 human breast cancer cells were inoculated subcutaneously into female athymic nude mice (8.0×10^6 cells/mouse) and allowed to form palpable tumors. Once the tumors reached approximately 60 mm^3, the animals were treated orally with (−)-trans-3-(5,6-dihydro-4H-pyrrolo[3,2,1-ij]quinolin-1-yl)-4-(1H-indol-3-yl)pyrrolidine-2,5-dione at 200 mg/kg or vehicle control daily (5 consecutive days, followed by a 2 day dosing holiday). (−)-trans-3-(5,6-dihydro-4H-pyrrolo[3,2,1-ij]quinolin-1-yl)-4-(1H-indol-3-yl)pyrrolidine-2,5-dione was formulated in PEG 400:20% Vitamin E TPGS (60:40). The animals received a total of 20 doses of (−)-trans-3-(5,6-dihydro-4H-pyrrolo[3,2,1-ij]quinolin-1-yl)-4-(1H-indol-3-yl)pyrrolidine-2,5-dione or vehicle control. Tumors were measured throughout treatment and the post-treatment observation period. Each point represents the mean±SEM of ten tumors. (See, FIG. 8)

Series [3] concerns the target T1, c-Met (Homo sapiens, UniProt P08581). The experiment in a line: Kinase inhibition, c-Met. The note with it: read-out: inhibitory constant (Ki). It is filed as biochemical. Here is the method:
(§1) (−)-trans-3-(5,6-dihydro-4H-pyrrolo[3,2,1-ij]quinolin-1-yl)-4-(1H-indol-3-yl)pyrrolidine-2,5-dione was assessed for its activity to inhibit a large panel (n=230) of human kinases.

In series [4] the target is CAMKIIδ (Homo sapiens, UniProt Q13557). Description: Kinase panel inhibition, CAMKIIδ. The format is biochemical. As for the experimental part: as §1
Series [5] has as its target Flt4 (Homo sapiens, UniProt P35916). Description: Kinase panel inhibition, Flt4. The format is biochemical. As for the experimental part:
as §1

Series [6] concerns the target PAK3 (Homo sapiens, UniProt O75914). Description: Kinase panel inhibition, PAK3. The format is biochemical. Here is the method:
as §1

The target of series [7] is Pim-1 (Homo sapiens, UniProt P11309). The experiment in a line: Kinase panel inhibition, Pim-1. The format is biochemical. As for the experimental part: as §1
Sequence of Pim-1 (P11309 whole entry): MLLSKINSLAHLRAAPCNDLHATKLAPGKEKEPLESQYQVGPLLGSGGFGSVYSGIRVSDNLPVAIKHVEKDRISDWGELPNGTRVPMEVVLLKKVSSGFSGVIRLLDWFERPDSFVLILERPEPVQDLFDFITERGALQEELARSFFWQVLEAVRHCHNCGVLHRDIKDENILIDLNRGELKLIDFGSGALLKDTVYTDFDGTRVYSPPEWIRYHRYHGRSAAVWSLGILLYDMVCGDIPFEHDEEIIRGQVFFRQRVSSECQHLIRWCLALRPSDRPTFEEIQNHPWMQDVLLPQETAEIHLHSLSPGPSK
For series [8], the target named is T2, phospho-c-Met (Homo sapiens, UniProt P08581).
T2 construct: from tissue; host or cells: HT-29 xenograft tumour in mice
T2 sequence (P08581 25-1390): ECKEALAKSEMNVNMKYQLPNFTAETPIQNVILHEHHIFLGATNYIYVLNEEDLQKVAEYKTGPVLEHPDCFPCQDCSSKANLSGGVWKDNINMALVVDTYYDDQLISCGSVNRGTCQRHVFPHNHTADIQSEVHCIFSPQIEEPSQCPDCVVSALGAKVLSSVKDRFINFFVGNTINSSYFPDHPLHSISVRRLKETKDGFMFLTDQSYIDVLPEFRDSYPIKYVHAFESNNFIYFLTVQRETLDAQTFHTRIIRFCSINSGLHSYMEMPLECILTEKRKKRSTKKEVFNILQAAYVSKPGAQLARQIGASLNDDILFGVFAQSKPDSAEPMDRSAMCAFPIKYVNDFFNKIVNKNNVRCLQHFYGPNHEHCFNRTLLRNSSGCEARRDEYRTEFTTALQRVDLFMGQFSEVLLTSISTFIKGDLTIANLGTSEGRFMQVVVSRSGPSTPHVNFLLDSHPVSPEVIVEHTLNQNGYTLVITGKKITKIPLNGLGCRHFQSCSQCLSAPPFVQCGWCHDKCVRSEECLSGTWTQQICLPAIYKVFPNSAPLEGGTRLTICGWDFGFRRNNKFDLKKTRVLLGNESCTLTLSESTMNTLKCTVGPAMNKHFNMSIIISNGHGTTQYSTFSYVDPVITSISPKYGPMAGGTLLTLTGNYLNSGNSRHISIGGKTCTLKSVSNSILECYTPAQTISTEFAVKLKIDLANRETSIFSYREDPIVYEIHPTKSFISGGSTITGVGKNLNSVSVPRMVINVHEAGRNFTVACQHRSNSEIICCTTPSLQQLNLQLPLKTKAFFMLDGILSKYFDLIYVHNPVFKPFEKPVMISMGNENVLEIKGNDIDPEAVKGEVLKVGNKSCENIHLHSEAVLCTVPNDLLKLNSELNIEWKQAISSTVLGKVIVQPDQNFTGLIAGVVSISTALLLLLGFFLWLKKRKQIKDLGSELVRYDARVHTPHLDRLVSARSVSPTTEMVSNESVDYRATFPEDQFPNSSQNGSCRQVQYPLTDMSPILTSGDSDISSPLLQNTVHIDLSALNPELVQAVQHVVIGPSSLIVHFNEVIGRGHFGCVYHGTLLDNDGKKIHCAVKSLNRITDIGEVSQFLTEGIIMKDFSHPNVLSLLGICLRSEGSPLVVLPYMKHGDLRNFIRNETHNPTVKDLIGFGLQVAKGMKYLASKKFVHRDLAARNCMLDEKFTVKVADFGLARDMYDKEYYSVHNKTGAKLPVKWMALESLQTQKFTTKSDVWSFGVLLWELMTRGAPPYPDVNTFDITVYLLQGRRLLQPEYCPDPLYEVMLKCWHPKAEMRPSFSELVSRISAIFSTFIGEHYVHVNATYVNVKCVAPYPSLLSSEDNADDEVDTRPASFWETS
Description: Phospho-c-Met in HT-29 xenograft tumors (immunohistochemistry, Western blotting). It is filed as in vivo, mice. To be noted: single dose 300 mg/kg, 24 hours later. Here is the method: A human colon cancer xenograft model with HT-29 human colon cancer cells was established as described in Example 23. The tumor-bearing mice were treated with a single dose of (−)-trans-3-(5,6-dihydro-4H-pyrrolo[3,2,1-ij]quinolin-1-yl)-4-(1H-indol-3-yl)pyrrolidine-2,5-dione (300 mg/kg). The reduction of phospho-c-Met was detected immunohistochemically 24 hours later. […] Western blotting of the tumor sample for phospho-c-Met confirmed the immunohistochemical analysis (FIG. 11, Panel B).

Series [9] relates to tumors. The experiment in a line: Clinical studies (tolerability and tumor responses). It is filed as in vivo, human. The text has this: (−)-trans-3-(5,6-dihydro-4H-pyrrolo[3,2,1-ij]quinolin-1-yl)-4-(1H-indol-3-yl)pyrrolidine-2,5,-dione is a selective inhibitor of c-Met, a receptor tyrosine kinase. When abnormally activated, c-Met plays multiple roles in aspects of human cancer, including cancer cell growth, survival, angiogenesis, invasion and metastasis.

Series [10] has as its target T1, c-Met. The experiment in a line: c-Met phosphorylation in MDA-MB-231 cells, basal and HGF-induced (Western blot). It is filed as cell-based. Details: Whole cell extracts were prepared in lysis buffer; endogenous in cells; host or cells: MDA-MB-231. The note with it: serum-deprived 16 hours, 100 ng/ml HGF/SF for 10 minutes. Here is the method: MDA-MB-231 cells were serum-deprived overnight (16 hours) in the absence or in the presence of the indicated concentrations of the separate enantiomers (+)-trans-3-(5,6-dihydro-4H-pyrrolo[3,2,1-ij]quinolin-1-yl)-4-(1H-indol-3-yl)pyrrolidine-2,5-dione and (−)-trans-3-(5,6-dihydro-4H-pyrrolo[3,2,1-ij]quinolin-1-yl)-4-(1H-indol-3-yl)pyrrolidine-2,5-dione. Cells were treated with 100 ng/ml recombinant human Hepatocyte Growth Factor/Scatter Factor (HGF/SF) (R&D Systems #294-HG) for 10 minutes. Whole cell extracts were prepared in lysis buffer (20 mM Tris-HCl pH 7.5, 150 mM NaCl, 1 mM Na2EDTA, 1 mM EGTA, 1% Triton X-100, 2.5 mM sodium pyrophosphate, 1 mM beta-glycerophosphate, 1 mM Na3VO4, 1 μg/ml leupeptin, 1 mM phenylmethylsulfonyl fluoride) and sonicated. Protein concentration was measured by Bradford assay using the BioRad reagent (BioRad, Hercules, Calif.), according to the manufacturer's directions. Samples ([…] of protein) were resolved by 8% SDS-PAGE under reducing conditions and transferred onto a PVDF membrane (BioRad). […] Proteins were detected by incubation overnight at 4° C. in TBS-T with 5% milk and either a polyclonal antibody against phosphorylated c-Met (#3121) or a monoclonal antibody against β-actin (A-5441) (Sigma), which was used as a control for total protein loading. […]
On the technique in general: Immunoblotting shows a protein as a band on a membrane.

T1 sequence (P08581 25-1390): as above
Sequence of PAK3 (O75914 whole entry): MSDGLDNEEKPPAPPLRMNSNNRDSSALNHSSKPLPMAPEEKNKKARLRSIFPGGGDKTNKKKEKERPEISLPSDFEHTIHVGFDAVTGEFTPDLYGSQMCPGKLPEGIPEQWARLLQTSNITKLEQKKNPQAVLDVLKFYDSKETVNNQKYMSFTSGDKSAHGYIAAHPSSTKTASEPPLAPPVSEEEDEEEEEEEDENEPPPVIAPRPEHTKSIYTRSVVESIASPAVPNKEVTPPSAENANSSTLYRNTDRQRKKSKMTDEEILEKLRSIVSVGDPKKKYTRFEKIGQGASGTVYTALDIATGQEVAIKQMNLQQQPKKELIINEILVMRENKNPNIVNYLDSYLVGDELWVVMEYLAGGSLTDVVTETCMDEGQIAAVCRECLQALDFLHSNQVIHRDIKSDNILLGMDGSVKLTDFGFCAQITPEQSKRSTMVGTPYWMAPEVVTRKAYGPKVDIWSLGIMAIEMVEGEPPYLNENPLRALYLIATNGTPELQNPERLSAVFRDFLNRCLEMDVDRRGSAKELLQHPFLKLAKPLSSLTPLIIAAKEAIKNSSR
Sequence of Flt4 (P35916 25-1363): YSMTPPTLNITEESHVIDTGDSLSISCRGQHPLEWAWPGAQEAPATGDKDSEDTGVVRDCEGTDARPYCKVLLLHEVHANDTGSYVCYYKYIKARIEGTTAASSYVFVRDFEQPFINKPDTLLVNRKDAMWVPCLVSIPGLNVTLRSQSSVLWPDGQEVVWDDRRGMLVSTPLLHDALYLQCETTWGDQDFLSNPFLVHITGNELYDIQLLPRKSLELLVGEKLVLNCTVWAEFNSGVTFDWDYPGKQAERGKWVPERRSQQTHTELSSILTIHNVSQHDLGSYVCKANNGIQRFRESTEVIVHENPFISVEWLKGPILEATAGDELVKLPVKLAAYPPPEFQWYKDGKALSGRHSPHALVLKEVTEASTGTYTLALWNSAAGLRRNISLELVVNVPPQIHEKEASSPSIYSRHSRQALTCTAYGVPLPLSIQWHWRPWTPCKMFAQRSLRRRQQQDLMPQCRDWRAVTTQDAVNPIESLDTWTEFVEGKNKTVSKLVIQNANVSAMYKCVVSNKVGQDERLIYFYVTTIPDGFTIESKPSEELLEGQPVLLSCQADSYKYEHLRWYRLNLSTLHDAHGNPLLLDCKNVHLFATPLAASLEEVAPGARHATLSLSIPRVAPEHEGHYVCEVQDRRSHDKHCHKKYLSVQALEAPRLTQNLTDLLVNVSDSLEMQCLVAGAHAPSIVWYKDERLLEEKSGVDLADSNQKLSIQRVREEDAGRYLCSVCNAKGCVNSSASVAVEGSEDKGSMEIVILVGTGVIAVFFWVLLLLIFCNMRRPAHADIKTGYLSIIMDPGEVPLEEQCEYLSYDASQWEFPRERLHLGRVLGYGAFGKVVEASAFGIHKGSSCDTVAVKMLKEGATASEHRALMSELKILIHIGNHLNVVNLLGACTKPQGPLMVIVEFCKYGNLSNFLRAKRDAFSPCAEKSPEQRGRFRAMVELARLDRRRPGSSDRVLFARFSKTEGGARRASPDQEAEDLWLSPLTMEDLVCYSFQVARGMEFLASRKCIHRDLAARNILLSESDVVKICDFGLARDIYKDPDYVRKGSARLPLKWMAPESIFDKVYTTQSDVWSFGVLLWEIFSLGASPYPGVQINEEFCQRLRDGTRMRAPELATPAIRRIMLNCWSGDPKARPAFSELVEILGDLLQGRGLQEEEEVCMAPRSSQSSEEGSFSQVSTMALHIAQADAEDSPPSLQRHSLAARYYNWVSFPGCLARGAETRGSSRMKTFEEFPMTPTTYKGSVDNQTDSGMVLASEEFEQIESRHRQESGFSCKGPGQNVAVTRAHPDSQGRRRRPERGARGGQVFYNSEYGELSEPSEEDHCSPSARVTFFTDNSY

The IC50 is the concentration that inhibits the measured activity by half. Usually Ki stands for the equilibrium dissociation constant of an inhibitor or competing ligand from its target. In general, inhibition refers to the percentage by which the read-out fell short of the control. A lower inhibition goes with a weak effect. Consider `O=C1NC(=O)[C@@H](c2cn3c4c(cccc24)CCC3)[C@@H]1c1c[nH]c2ccccc12` (single isomer, unassigned) [(−)-trans-3-(5,6-dihydro-4H-pyrrolo[3,2,1-ij]quinolin-1-yl)-4-(1H-indol-3-yl)pyrrolidine-2,5-dione], for which the IC50 in series [1] was around 0.5 µM; in series [4], around 10 µM; in [5], around 16 µM; in [6], around 6.6 µM; in [7], 10 µM. In addition, the Tumor growth inhibition in series [2] (200 mg/kg orally, daily 5 days on / 2 days off, 20 doses, p=0.009) came to 79%. Moreover, the “change in body weight” value in [2] (oral administration at 200 mg/kg) is “no significant change in body weight”. The Ki in [3] is around 0.36 µM. This molecule also came in with an inhibition at 10 µM in series [7] (10 μM) of 33%. Further, the “amount of phospho-c-Met in tumor” value in [8] is reported as “significant decrease in the amount of phospho-c-Met”. Further, the “tumor responses in clinical studies” value in [9] (broad ranges of tumors and doses) was “tumor responses and prolonged stable disease”. The “tolerability in clinical studies” value in series [9] (human, in vivo) is “well tolerated”. Moreover, in [10], the “concentration that inhibits both basal and HGF-induced autophosphorylation of c-Met” value is listed as “at least 30 nM”.
